# Patent publication US7511041B2, “Fused azole-pyrimidine derivatives” (Bayer Pharmaceuticals Corporation, priority 2002, dated 2009)
# Columns and labels:
# [1] = target: T1, Recombinant human PI3Kγ (full length human PI3K p110γ) (Homo sapiens, UniProt P48736); test: Kinase assay of PI3Kγ (solid-phase lipid kinase assay); format: biochemical; details: in vitro PI3K-γ inhibitory activity, class symbols; read-out: in vitro PI3K-gamma
# T1 construct: full length human PI3K p110γ fused with a His6-tag at the C-terminus; His6 (C); purchased ALEXIS BIOCHEMICALS #201-055-C010; host or cells: S. frugiperda 9 insect cells
# T1 sequence (P48736 whole entry, the tested form may be a part): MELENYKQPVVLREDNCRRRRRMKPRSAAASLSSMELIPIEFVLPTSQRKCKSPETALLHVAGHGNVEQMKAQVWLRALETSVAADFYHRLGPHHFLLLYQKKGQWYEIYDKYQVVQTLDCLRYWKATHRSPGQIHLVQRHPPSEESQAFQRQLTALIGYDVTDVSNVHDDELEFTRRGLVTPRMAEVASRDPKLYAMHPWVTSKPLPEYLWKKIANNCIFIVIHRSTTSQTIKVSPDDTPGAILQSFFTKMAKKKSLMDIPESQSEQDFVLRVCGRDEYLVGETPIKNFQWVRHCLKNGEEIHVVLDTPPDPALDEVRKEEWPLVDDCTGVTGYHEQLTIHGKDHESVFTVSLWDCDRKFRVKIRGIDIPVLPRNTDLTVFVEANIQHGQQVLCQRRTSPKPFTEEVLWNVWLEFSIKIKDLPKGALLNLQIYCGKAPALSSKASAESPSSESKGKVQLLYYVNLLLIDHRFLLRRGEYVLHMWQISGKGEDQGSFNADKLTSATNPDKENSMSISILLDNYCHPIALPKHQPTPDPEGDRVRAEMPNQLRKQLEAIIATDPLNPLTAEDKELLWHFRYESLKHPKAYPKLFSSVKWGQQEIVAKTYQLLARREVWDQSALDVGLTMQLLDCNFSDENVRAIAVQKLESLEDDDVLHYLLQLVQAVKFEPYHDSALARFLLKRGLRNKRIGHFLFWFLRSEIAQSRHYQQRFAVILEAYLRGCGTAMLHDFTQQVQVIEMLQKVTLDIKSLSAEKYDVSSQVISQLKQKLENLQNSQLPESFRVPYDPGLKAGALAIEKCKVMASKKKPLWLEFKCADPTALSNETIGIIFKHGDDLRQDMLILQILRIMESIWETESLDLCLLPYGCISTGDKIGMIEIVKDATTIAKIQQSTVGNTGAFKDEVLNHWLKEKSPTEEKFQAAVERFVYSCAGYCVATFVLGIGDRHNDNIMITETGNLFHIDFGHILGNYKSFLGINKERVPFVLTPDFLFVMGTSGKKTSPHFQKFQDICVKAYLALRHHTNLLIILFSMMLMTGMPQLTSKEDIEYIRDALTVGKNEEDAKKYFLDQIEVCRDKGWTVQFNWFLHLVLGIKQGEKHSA
SMILES,melting point,IC50 [1] [nM]
COc1cc2c(cc1Br)C1=NCCN1C(NC(=O)c1cccnc1)=N2.Cl [Example 2-67],289 °C (dec.),100 to 500
COc1cc(OC)c2c(c1)C1=NCCN1C(NC(=O)c1cccnc1)=N2 [Example 2-68],228 °C (dec.),< 100
COc1cc(OC)c2c(c1)C1=NCCN1C(NC(=O)c1cccnc1)=N2.Cl [Example 2-69],275 °C (dec.),100 to 500
COc1cc(OC)c2c(c1)C1=NCCN1C(NC(=O)c1ccc(NC(C)=O)nc1)=N2 [Example 2-70],286 °C (dec.),100 to 500
COc1cc(OC)c2c(c1)C1=NCCN1C(NC(=O)c1ccc3[nH]cnc3c1)=N2 [Example 2-72],210 °C (dec.),< 100
Cc1cc(Br)c2c(c1)C1=NCCN1C(NC(=O)c1cccnc1)=N2.Cl [Example 2-74],220 °C,< 100
Cc1cc(Br)c2c(c1)C1=NCCN1C(NC(=O)c1ccc3[nH]cnc3c1)=N2 [Example 2-75],> 290 °C,100 to 500
COc1cc2c(c(OC)c1C)N=C(NC(=O)c1cccnc1)N1CCN=C21.Cl [Example 2-76],235 °C (dec.),100 to 500
COc1cc2c(c(OC)c1C)N=C(NC(=O)c1cccnc1C)N1CCN=C21 [Example 2-77],210 °C (dec.),< 100
COc1cc2c(c(OC)c1C)N=C(NC(=O)c1ccc(NC(C)=O)nc1)N1CCN=C21 [Example 2-79],> 310 °C,100 to 500
COc1cc2c(c(OC)c1C)N=C(NC(=O)c1ccc(NC(C)=O)nc1)N1CCN=C21.Cl [Example 2-80],305 °C (dec.),< 100
COc1cc2c(c(OC)c1C)N=C(NC(=O)c1ccc3[nH]cnc3c1)N1CCN=C21 [Example 2-81],202 °C,100 to 500
Cl.O=C(NC1=Nc2ccc(F)cc2C2=NCCN12)c1ccc2[nH]cnc2c1 [Example 2-83],> 300 °C,100 to 500
O=C(NC1=Nc2ccc(Cl)cc2C2=NCCN12)c1cccnc1 [Example 2-84],210 °C,100 to 500
Cl.O=C(NC1=Nc2ccc(Cl)cc2C2=NCCN12)c1ccc2[nH]cnc2c1 [Example 2-86],305 °C (dec.),100 to 500
O=C(NC1=Nc2ccc(Br)cc2C2=NCCN12)c1cccnc1 [Example 2-87],228 °C,100 to 500
Cl.O=C(NC1=Nc2ccc(Br)cc2C2=NCCN12)c1ccc2[nH]cnc2c1 [Example 2-89],288 °C,100 to 500
Cc1ccc2c(c1)C1=NCCN1C(NC(=O)c1cccnc1)=N2 [Example 2-90],210 °C,< 100
Cc1ccc2c(c1)C1=NCCN1C(NC(=O)c1cccnc1)=N2.Cl [Example 2-91],> 290 °C,100 to 500
Cc1ccc2c(c1)C1=NCCN1C(NC(=O)c1ccc3[nH]cnc3c1)=N2.Cl [Example 2-92],> 290 °C,< 100
COc1ccc2c(c1)C1=NCCN1C(NC(=O)c1cccnc1)=N2.Cl [Example 2-93],> 300 °C,100 to 500
COc1ccc2c(c1)C1=NCCN1C(NC(=O)c1ccc3[nH]cnc3c1)=N2.Cl [Example 2-94],288 °C,< 100
C=Cc1ccc2c(c1)C1=NCCN1C(NC(=O)c1cccnc1)=N2 [Example 2-95],196 to 198 °C,100 to 500
Cl.O=C(NC1=Nc2ccc(-c3ccco3)cc2C2=NCCN12)c1cccnc1 [Example 2-97],298 to 299 °C,100 to 500
Cl.O=C(NC1=Nc2cccc(Cl)c2C2=NCCN12)c1cccnc1 [Example 2-98],249 °C,100 to 500
O=C(NC1=Nc2c(F)cccc2C2=NCCN12)c1cccnc1 [Example 2-99],243 °C,100 to 500
